Reference: ChEMBL document CHEMBL1137447 (Bioorg Med Chem, 2007)
pIC50: −log10 of the molar value.

Experiments:
[1] = target: T1, Prostaglandin G/H synthase 1 (Ovis aries, UniProt P05979); experiment: Inhibition of ovine COX1 by enzyme immuno assay
T1 sequence (P05979 whole entry): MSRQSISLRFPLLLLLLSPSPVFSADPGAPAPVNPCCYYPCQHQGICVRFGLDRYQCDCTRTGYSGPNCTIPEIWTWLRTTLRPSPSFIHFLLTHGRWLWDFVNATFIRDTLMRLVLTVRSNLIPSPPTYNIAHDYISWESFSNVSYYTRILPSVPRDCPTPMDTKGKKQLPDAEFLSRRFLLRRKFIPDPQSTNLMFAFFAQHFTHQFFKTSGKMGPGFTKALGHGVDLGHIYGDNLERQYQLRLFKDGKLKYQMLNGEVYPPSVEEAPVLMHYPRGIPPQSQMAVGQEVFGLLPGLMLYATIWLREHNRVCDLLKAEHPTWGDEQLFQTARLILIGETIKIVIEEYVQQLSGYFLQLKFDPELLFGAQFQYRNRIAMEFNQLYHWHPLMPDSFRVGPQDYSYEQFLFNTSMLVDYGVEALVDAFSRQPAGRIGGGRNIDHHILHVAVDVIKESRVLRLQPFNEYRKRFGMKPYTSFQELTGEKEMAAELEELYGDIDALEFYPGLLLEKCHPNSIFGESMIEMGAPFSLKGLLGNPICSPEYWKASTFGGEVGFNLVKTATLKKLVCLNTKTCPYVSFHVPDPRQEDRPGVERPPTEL

Ovis aries = species on record: Ovis aries; experiment: Selectivity index, ratio of IC50 for ovine COX1 to IC50 for ovine COX2
[2] = Effect on nitric oxide release in pH 7.4 PBS buffer at 37 degC after 1.5 hrs; type: functional
[3] = Effect on nitric oxide release in pH 7.4 PBS buffer in presence of rat serum at 37 degC after 1.5 hrs; type: functional

| pIC50 [1] | Ratio IC50 (Ovis aries) | Structure (SMILES) | Activity [2] [%] | Activity [3] [%] |
| --- | --- | --- | --- | --- |
| < 4.00 | > 5.9 | CCN(CC)/[N+]([O-])=N\OCOC(=O)/C(=C/c1ccc(S(C)(=O)=O)cc1)c1ccc(NC(C)=O)cc1 | 6.5 | 70.4 |
|  |  | CCN(CC)/[N+]([O-])=N/O | 85 | 85.1 |
| < 4.00 | > 106 | CC(=O)Nc1ccc(/C(=C\c2ccc(S(C)(=O)=O)cc2)C(=O)OCO/N=[N+](/[O-])N2CCCC2)cc1 | 9.9 | 73 |
| 6.00 | 0.43 | CCN(CC)/[N+]([O-])=N\OCOC(=O)/C(=C/c1ccc(S(C)(=O)=O)cc1)c1ccc(F)cc1 | 7.1 | 75.3 |
| < 4.00 | > 9.2 | CS(=O)(=O)c1ccc(/C=C(/C(=O)OCO/N=[N+](/[O-])N2CCCC2)c2ccc(F)cc2)cc1 | 11.3 | 67.1 |
| 5.60 | 0.22 | CS(=O)(=O)c1ccc(/C=C(/C(=O)OCO/N=[N+](/[O-])N2CCCC2)c2cccc(Br)c2)cc1 | 6.9 | 48.6 |
| 5.96 | 0.03 | CCN(CC)/[N+]([O-])=N\OCOC(=O)/C(=C/c1ccc(S(C)(=O)=O)cc1)c1cccc(Br)c1 | 3.2 | 59.2 |
